This is an account of results in publication PMC11173529, “Structure–Activity Relationship Studies in a Series of Xanthine Inhibitors of SLACK Potassium Channels” (Molecules, 2024).

One may read the IC50 as the concentration at which inhibition is half-maximal.

One data set has as its target T1, WT hSLACK (Homo sapiens, UniProt Q5JUK3).
T1 construct: host or cells: CHO-K1
T1 sequence (Q5JUK3 1-1235 isoform Q5JUK3-3): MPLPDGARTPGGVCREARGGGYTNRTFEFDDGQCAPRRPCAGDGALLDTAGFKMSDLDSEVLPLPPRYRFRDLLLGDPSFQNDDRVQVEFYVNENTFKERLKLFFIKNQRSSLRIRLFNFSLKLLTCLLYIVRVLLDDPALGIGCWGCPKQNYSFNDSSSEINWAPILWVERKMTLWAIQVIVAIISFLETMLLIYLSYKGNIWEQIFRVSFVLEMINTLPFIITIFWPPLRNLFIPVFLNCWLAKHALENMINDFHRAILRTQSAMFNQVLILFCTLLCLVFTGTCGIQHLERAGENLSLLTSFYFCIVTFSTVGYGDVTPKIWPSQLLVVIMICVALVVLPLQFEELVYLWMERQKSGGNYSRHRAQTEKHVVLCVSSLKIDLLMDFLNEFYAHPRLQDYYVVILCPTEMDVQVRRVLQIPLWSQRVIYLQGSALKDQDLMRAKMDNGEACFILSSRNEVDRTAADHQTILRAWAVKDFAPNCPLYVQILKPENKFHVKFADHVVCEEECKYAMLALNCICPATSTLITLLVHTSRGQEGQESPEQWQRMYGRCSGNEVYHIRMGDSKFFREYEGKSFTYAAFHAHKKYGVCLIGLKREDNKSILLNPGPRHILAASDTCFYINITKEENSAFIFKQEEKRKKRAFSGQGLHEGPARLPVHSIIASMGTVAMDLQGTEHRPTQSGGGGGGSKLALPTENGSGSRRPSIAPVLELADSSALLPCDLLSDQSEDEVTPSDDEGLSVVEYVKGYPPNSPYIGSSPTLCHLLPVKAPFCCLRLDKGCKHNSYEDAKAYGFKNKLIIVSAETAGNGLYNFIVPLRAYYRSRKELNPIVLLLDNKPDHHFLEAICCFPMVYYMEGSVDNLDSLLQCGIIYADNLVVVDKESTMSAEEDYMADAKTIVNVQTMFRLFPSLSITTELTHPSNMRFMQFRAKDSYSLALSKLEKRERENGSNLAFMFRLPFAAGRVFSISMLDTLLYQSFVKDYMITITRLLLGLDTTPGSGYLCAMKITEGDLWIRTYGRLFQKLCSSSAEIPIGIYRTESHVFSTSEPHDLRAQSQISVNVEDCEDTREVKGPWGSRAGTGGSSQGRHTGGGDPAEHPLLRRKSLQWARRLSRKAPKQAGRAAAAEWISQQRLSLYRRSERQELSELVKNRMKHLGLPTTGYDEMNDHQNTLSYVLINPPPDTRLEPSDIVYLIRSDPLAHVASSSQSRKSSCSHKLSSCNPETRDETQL
Description: Whole-cell automated patch-clamp (APC) in CHO cells stably expressing WT hSLACK. It counts as cell-based. To be noted: for SLACK Imax: maximum inhibition at 30 µM test compound standardized to VU0606170 (set at 100%), WT hSLACK; for IC50: whole-cell APC, CHO cells stably expressing WT hSLACK, averages n ≥ 3, read-out: SLACK IC50. The method, then: All new analogs were tested in our APC assay using CHO cells stably expressing WT SLACK using a concentration-response format with concentrations ranging from 0.125 to 30 μM in half-log steps and a minimum of three cells (replicates) per concentration series. […] Still, there were some notable results. For example, substitution at the 4-position was largely unfavorable regardless of the nature of the substituent (21, 24, 27, 30, and 33) apart from the 4-fluoro analog 18. […] As the trifluoromethyl group is similar in electronegativity to chlorine, but larger than both methyl and chlorine, perhaps the steric bulk of the trifluoromethyl is to blame for the poor potency of these analogs. With the exception of the fluoro (16–18) and cyano (28–30) analogs, substitution at the 3-position was favorable for SLACK activity, with 3-methoxy analog 32 standing out in this set.
Stably transfected monoclonal HEK293 cell lines expressing Slick, Maxi-K α1/β3, Maxi-K α1/β4, CaV3.2, GIRK 1/2, KV2.1, KV7.2, NaV1.7, and TASK-1 were generated as previously described. Stably transfected monoclonal HEK293 cell lines expressing hERG were generated as previously described. CHO-K1 cells expressing human Slack and disease-associated human Slack mutations, G288S and A934T, were generated by transfecting a PiggyBac TRE mammalian expression vector (VectorBuilder, Chicago, IL, USA) containing KCNT1. FuGENE 6 (Promega, Madison, WI, USA) transfection reagent and protocol, together with Opti-MEM (Thermo Fisher Scientific, Walkham, MA, USA), were utilized.
Automated patch-clamp recording was performed with a SyncroPatch 768 PE system (Nanion, Munich, Germany) as previously described. Whole-cell recordings were performed at room temperature. Cells were harvested by first washing with PBS without Mg^2+ or Ca^2+ (Gibco, Billings, MT, USA) to remove cell culture media, followed by dissociation with TryPLE (Gibco, Billings, MT, USA). Cells were then resuspended and diluted to 100,000 cells/mL in external solution. External solution contained 105 mM NaCl, 4 mM KCl, 1 mM MgCl2, 5 mM CaCl2, 10 mM HEPES, and 40 mM N-Methyl-D-glucamine chloride, titrated to pH of 7.4 and osmolarity of 300 mOsm/kg; internal solution contained 70 mM NaCl, 70 mM KF, 10 mM KCl, 5 mM EGTA, and 5 mM HEPES, titrated to a pH of 7.2 and osmolarity of 295 mOsm/kg.
The APC protocol was set as follows: Cells were held at a […] of −80 mV for 100 ms, then a ramp protocol was performed from −100 mV to 80 mV at 0.4 mV/ms, followed by holding the cell at −80 mV for another 100 ms, then steps were performed at −20 mV, 0 mV, +20 mV, +40 mV, and +60 mV for 100 ms of each step. Whole-cell currents were measured at 0 mV and normalized to current after external buffer addition. […] To obtain the concentration-response relationship graphs and IC50 values, we take the median value of the last 7 current amplitude values obtained for each set of data points collected for a given concentration at a particular step.
A general note: Patch clamp records ionic current or voltage across a cell membrane.

Data set [1] deals with WT SLACK. More on the design: method as in PMID 32408169. To be noted: whole-cell patch-clamp electrophysiology; read-out: IC50 versus WT SLACK; cited from earlier work.
Another data set has as its system hERG (KV11.1) channels. More on the design: method as in PMID 32408169. The conditions noted are these: at 10 µM; cited from earlier work.
A further data set deals with Kcnt1^L/L mice. More on the design: method as in PMID 36173683. The conditions noted are these: mouse model using Kcnt1 L/L mice; cited from earlier work.
Another data set deals with GABAA Cl– channels. More on the design: method as in PMID 33859800. To be noted: binding displacement assay; cited from earlier work.
Another data set concerns SLACK. More on the design: method as in PMID 33859800. The conditions noted are these: whole-cell patch-clamp electrophysiology; read-out: IC50 versus WT SLACK; cited from earlier work.
The subject of data set [2] is WT SLACK. More on the design: method as in earlier work. To be noted: APC assay; read-out: IC50 versus WT SLACK; cited from earlier work.
A further data set has as its system hERG channel. More on the design: method as in PMID 33143429. To be noted: Tl+-flux assay; cited from earlier work.
Data set [3] has as its system WT SLACK. More on the design: method as in PMID 33143429. The conditions noted are these: whole-cell APC, HEK-293 cells; read-out: IC50 versus WT SLACK; cited from earlier work.
For data set [4], the system named is co-cultures of cortical neuronal and glial cells. More on the design: method as in PMID 33143429. The conditions noted are these: cited from earlier work.
The test system of another data set is A934T SLACK. More on the design: method as in PMID 37812884. To be noted: Tl+-flux assay; read-out: IC50 versus A934T SLACK; cited from earlier work.
The subject of data set [5] is WT SLACK. More on the design: method as in PMID 37812884. The conditions noted are these: whole-cell APC, CHO cells stably expressing WT SLACK; read-out: IC50 versus WT SLACK; cited from earlier work.
On the set-up of data set [6]: method as in PMID 37812884. The conditions noted are these: cited from earlier work.

Molecules are shown by their SMILES. Where two headings read alike, the source gives them in different places. Where only a bound is given, the exact number is not on record here.

Regarding `COc1cccc(CN(C)c2nc3c(c(=O)n(Cc4ccccc4)c(=O)n3C)n2C)c1` [Analog 60], at WT hSLACK, the “SLACK Imax” value is recorded as 100% and the IC50 amounted to 2.7 µM.

As to `COc1ccc(CN(C)c2nc3c(c(=O)n(Cc4ccccc4)c(=O)n3C)n2C)cc1` [Analog 61], at WT hSLACK, the “SLACK Imax” value came out at 100% and the IC50 was determined as 2.4 µM.

Take `CN(Cc1ccccn1)c1nc2c(c(=O)n(Cc3ccccc3)c(=O)n2C)n1C` [Analog 62]: at WT hSLACK, the “SLACK Imax” value is given as 107% and the half-maximal inhibitory concentration (IC50) was above 10 µM.

Turning to `CN(Cc1cccnc1)c1nc2c(c(=O)n(Cc3ccccc3)c(=O)n2C)n1C` [Analog 63], on WT hSLACK, the “SLACK Imax” value stood at 20% and the IC50 was above 10 µM.

Regarding `CN(Cc1ccncc1)c1nc2c(c(=O)n(Cc3ccccc3)c(=O)n2C)n1C` [Analog 64], at WT hSLACK, the “SLACK Imax” value is listed as 70% and the IC50 was above 10 µM.

On to `C[C@H](c1ccccc1)N(C)c1nc2c(c(=O)n(Cc3ccccc3)c(=O)n2C)n1C` [Analog 65], for which, at WT hSLACK, the “SLACK Imax” value was 100% and the IC50 worked out at 1.6 µM.

In the case of `C[C@@H](c1ccccc1)N(C)c1nc2c(c(=O)n(Cc3ccccc3)c(=O)n2C)n1C` [Analog 66], at WT hSLACK, the “SLACK Imax” value was 50% and the IC50 is above 10 µM.

Regarding `CCN(Cc1ccccc1)c1nc2c(c(=O)n(Cc3ccccc3)c(=O)n2C)n1C` [Analog 67], at WT hSLACK, the “SLACK Imax” value is listed as 100% and the IC50 was 1.4 µM.

Regarding `CCCN(Cc1ccccc1)c1nc2c(c(=O)n(Cc3ccccc3)c(=O)n2C)n1C` [Analog 68], at WT hSLACK, the “SLACK Imax” value turned out to be 100% and the half-maximal inhibitory concentration (IC50) was 1.3 µM.

As to `CC(C)N(Cc1ccccc1)c1nc2c(c(=O)n(Cc3ccccc3)c(=O)n2C)n1C` [Analog 69], on WT hSLACK, the “SLACK Imax” value is 100% and the 50% inhibitory concentration (IC50) was determined as 3.4 µM.

For `Cn1c(N(Cc2ccccc2)Cc2ccccc2)nc2c1c(=O)n(Cc1ccccc1)c(=O)n2C` [Analog 72], at WT hSLACK, the “SLACK Imax” value is on record as 100% and the IC50 stood at 1.4 µM.

With `Cn1c(N2Cc3ccccc3C2)nc2c1c(=O)n(Cc1ccccc1)c(=O)n2C` [Analog 74], the “SLACK activity (in words)” value on WT hSLACK (APC, WT SLACK) was “inactive”.

In the case of `Cn1c(N2CCc3ccccc3C2)nc2c1c(=O)n(Cc1ccccc1)c(=O)n2C` [Analog 75], on WT hSLACK, the “SLACK Imax” value is listed as 100% and the IC50 stood at 2.8 µM.

For the molecule `Cn1c(CCc2ccccc2)nc2c1c(=O)n(Cc1ccccc1)c(=O)n2C` [Analog 77], on WT hSLACK, the “SLACK Imax” value was determined as 103% and the IC50 turned out to be 7 µM.

As for `Cc1cccc(CC(=O)Nc2cnn(-c3cccc(C(=O)NCc4ccccc4-n4cncn4)c3)c2)c1` [Compound 1], the IC50 in the data set with WT SLACK [1] is 3.2 µM. Moreover, the “hERG (KV11.1) inhibition” value with hERG (KV11.1) channels is on record as “almost completely inhibited”.

As to `O=C(Nc1cccc(C(F)(F)F)c1)c1ccc2nc(N3C(=O)c4ccccc4C3=O)sc2c1` [Compound 2], the IC50 in the data set with WT SLACK [1] was 3 µM. Moreover, in the data set on hERG (KV11.1) channels, the “hERG (KV11.1) inhibition” value is given as 10–20%.

Turning to `O=C(Nc1cccc(C(F)(F)F)c1)c1ccc(CSc2nnnn2-c2ccccc2)cc1` [Compound 3], the IC50 with WT SLACK [1] is 1.6 µM. The “hERG (KV11.1) inhibition” value with hERG (KV11.1) channels is reported as 45%.

On to `C[C@H](NC(=O)c1cc(C(F)(F)F)nn1C)c1nc(-c2ccnc(C(F)(F)F)c2)no1` [Compound 4], for which the anticonvulsant effects result in the data set with Kcnt1^L/L mice is listed as “demonstrated anticonvulsant effects”. In the data set with GABAA Cl– channels, the “displacement at GABAA Cl– channels” value is listed as 74%. Moreover, in the data set on SLACK, the IC50 is 0.04 µM.

Regarding `O=C(N[C@@H]1CCc2cc(Cl)ccc21)c1ccc(S(=O)(=O)N2CCCC2)s1` [Compound 5], in the data set on WT SLACK [2], the IC50 is below 1 µM.

For `COc1ccc(Cl)cc1NC(=O)CN1CCN(S(=O)(=O)N2CCC(C)CC2)CC1` [Compound 6], the IC50 in the data set with hERG channel is above 10 µM; in the data set on WT SLACK [3] it was 1.7 µM. Further, in data set [4], the “frequency of spontaneous calcium oscillations” value is reported as “inhibited the frequency of spontaneous calcium oscillations”.

As for `Cc1ccc2cccc(S(=O)(=O)N3CC(c4nc(-c5ccc(F)cc5)no4)C3)c2n1` [Compound 7], the IC50 was 0.67 µM in the data set on A934T SLACK and 0.32 µM in the data set with WT SLACK [5]. Further, the “metabolism in mouse liver microsomes” value in data set [6] is “rapidly metabolized”.
